# Results: patent US5741687A (Toyo Boseki Kaubshiki Kaisha, priority 1992, dated 1998)
# Tested on: sorbitol oxidase
# Test: Sorbitol oxidase activity determined by H2O2 produced, with various monosaccharides and derivatives as substrate
# Assay type: biochemical, Xanthomonas maltophilia TE3539
# Parameters: concentration or dose not given beside the values
# Conditions: substrate specificity; enzyme activity with respect to D-sorbitol set at 100
# Experimental: First, the following reaction mixture is prepared.
# The enzyme activity was determined in the case where various monosaccharides and derivatives thereof were used as a substrate. The value of enzyme activity with respect to D-sorbitol was set at 100.
row,Relative activity (%),SMILES
1,1.01,O=C[C@@H](O)[C@@H](O)[C@H](O)[C@H](O)CO [D-mannose]
2,0.40,O[C@H]1[C@H](O)[C@@H](O)[C@H](O)[C@@H](O)[C@H]1O [Inositol]
3,3.50,OCC(O)CO [Glycerol]
4,10.60,O=C(CO)[C@@H](O)[C@H](O)[C@@H](O)CO [L-sorbose]
5,0.42,O=C[C@H](O)[C@@H](O)[C@@H](O)[C@H](O)CO [D-galactose]
6,2.88,O=C(CO)[C@@H](O)[C@H](O)[C@H](O)CO [D-fructose]
7,0.00,Cl.N[C@H]1C(O)O[C@H](CO)[C@@H](O)[C@@H]1O (stereo partly drawn) [D-glucosamine hydrochloride]
8,100.00,OC[C@@H](O)[C@@H](O)[C@H](O)[C@@H](O)CO [D-sorbitol]
9,0.54,O=C[C@H](O)[C@@H](O)[C@H](O)[C@H](O)CO [D-glucose]
10,23.20,OC[C@@H](O)C(O)[C@H](O)CO [D-arabitol]
11,89.90,OC[C@@H](O)[C@H](O)[C@@H](O)CO [D-xylitol]
12,86.60,OC[C@@H](O)[C@@H](O)[C@H](O)[C@H](O)CO [D-mannitol]
13,0.00,OC[C@H]1O[C@H](O[C@H]2[C@H](O)[C@@H](O)C(O)O[C@@H]2CO)[C@H](O)[C@@H](O)[C@@H]1O (mixture of isomers) [Maltose]

# Tested on: sorbitol oxidase
# Test: as above
# Assay type: biochemical, Xanthomonas maltophilia TE3539
# Conditions: with respect to sorbitol
row,Km [µM],SMILES
1,600,OC[C@@H](O)[C@@H](O)[C@H](O)[C@@H](O)CO [D-sorbitol]
